# Experiments:
# [1] = target: acyl-CoA: cholesterol acyltransferase (ACAT); assay: In vitro ACAT inhibition: radiolabeled cholesterol oleate formed from radiolabeled oleic acid in rabbit intestinal microsomes; type: biochemical; conditions: tissue preparation containing rabbit intestinal microsomes; concentration required to inhibit the activity of the enzyme by 50%
# Protocol: The ability of representative compounds of the present invention to inhibit ACAT was measured using an in vitro test more fully described in F. J. Field and R. G. Salone, Biochemica et Biophysica 712:557-570 (1982). The test assesses the ability of a test compound to inhibit the acylation of cholesterol by oleic acid by measuring the amount of radiolabeled cholesterol oleate formed from radiolabeled oleic acid in a tissue preparation containing rabbit intestinal microsomes.
# The data appear in Table 1 where they are expressed as ICso values; i.e., the concentration of test compound required to inhibit the activity of the enzyme by 50%.
# male Sprague-Dawley rats = assay: In vivo screen APCC: blood cholesterol in rats fed PCC diet overnight; conditions: blood cholesterol versus vehicle (CMC/Tween); dosed at 4 PM, PCC diet with 1 % or 0.5% cholic acid overnight, sacrificed at 8 AM; dose not given
# Text: In one in vivo screen designated APCC, male Sprague-Dawley rats (200 to 225 g) were randomly divided into treatment groups and dosed at 4 PM with either vehicle (CMC/Tween) or suspensions of compounds in vehicle. The normal chow diet was then replaced with the PCC diet with either 1 % or 0.5% cholic acid, as indicated. The rats consumed this diet ad libitum during the night and were sacrificed at 8 AM to obtain blood samples for cholesterol analysis using standard procedures. Statistical differences between mean cholesterol values for the same vehicle were determined using analysis of variance followed by Fisher's least significant test.
SMILES,IC50 [1] [nM],% Change (mg/dl) (male Sprague-Dawley rats)
"CC(C)c1cccc(C(C)C)c1NC(=O)CC(=O)NCC1(c2ccccc2)CCCC1 [N-[2,6-bis(1-methylethyl)-phenyl]-N'-(1-phenylcyclo-pentyl)methylpropanediamide]",990,+7%
"CC(C)c1cccc(C(C)C)c1NC(=O)CC(=O)NCC(c1ccccc1)c1ccccc1 [N-[2,6-Bis(1-methylethyl)phenyl]-N'-(2,2-diphenylethyl)propanediamide]",770,
"CC(C)c1cccc(C(C)C)c1NC(=O)CC(=O)NC(c1ccccc1)c1ccccc1 [N-[2,6-bis(1-methylethyl)-phenyl-N'-(diphenylmethyl)-propanediamide]",490,-20%

# These reach a lower IC50 [1]. Values come first.
IC50 [1] [nM],SMILES,% Change (mg/dl) (male Sprague-Dawley rats)
13,"CC(C)c1cccc(C(C)C)c1NC(=O)CC(=O)N(Cc1ccccc1)Cc1ccccc1 [N'-[2,6-bis(1-methylethyl)-phenyl]-N,N-bis(phenylmethyl)-propanediamide]",-42%
20,"CC(C)c1cccc(C(C)C)c1NC(=O)CC(=O)N(C(C)C)C(c1ccccc1)c1ccccc1 [N'-[2,6-bis(1-methylethyl)-phenyl]-N-(diphenylmethyl)-N-(1-methylethyl)propanediamide]",-41%

# Source: EP0433662A2, “Acat inhibitors” (WARNER-LAMBERT COMPANY, priority 1989, dated 1991)
